Laboratory results reported in PMC10293842 (Proceedings of the National Academy of Sciences of the …, 2023).
Positions of bridges follow the written chain, without caps; N, C: chain ends. Residues, ends and D or L forms follow the SMILES beside them.

What was measured:
[1] = test system: Delta (B.1.617.2) S pseudotyped virus on VeroE6 cells; type: cell-based, SARS-CoV-2
[2] = test system: SARS-CoV-2 S (Wuhan-Hu-1) pseudo-typed VSV on VeroE6 cells; type: cell-based
[3] = test system: SARS-CoV-2 ancestral Wuhan strain in HEK293 ACE2+ TMPRSS2+ cells; conditions: 24 h
[4] = test system: SARS1-S pseudovirus on VeroE6 cells; type: cell-based
[5] = test system: Omicron BA.2 S pseudotyped virus on VeroE6 cells; type: cell-based, SARS-CoV-2
[6] = test system: Alpha (B.1.1.7) S pseudotyped virus on VeroE6 cells; type: cell-based, SARS-CoV-2
[7] = test system: Beta (B.1.351) S pseudotyped virus on VeroE6 cells; type: cell-based, SARS-CoV-2
[8] = test system: Omicron (B.1.1.529) BA.1 S pseudotyped virus on VeroE6 cells; type: cell-based, SARS-CoV-2
[9] = test system: WIV-16-S pseudovirus on VeroE6 cells; type: cell-based
[10] = test system: Omicron BA.1 and BA.2; conditions: cited from earlier work
[11] = test system: Omicron BA.1; conditions: cited from earlier work
[12] = test system: Omicron BA.2; conditions: cited from earlier work

Compound: CC[C@H](C)[C@@H]1NC(=O)[C@H](CCC(N)=O)NC(=O)[C@H](CCC(=O)O)NC(=O)[C@H](CCCNC(=N)N)NC(=O)[C@@H]2CCCN2C(=O)[C@H](CCCNC(=N)N)NC(=O)[C@H](CCCNC(=N)N)NC(=O)[C@H](Cc2ccc(O)cc2)NC(=O)CSC[C@@H](C(=O)NCC(N)=O)NC(=O)[C@H](Cc2ccccc2)NC(=O)[C@H](C(C)C)NC(=O)[C@H](Cc2c[nH]c3ccccc23)NC(=O)[C@H](CC(C)C)NC(=O)[C@H](CO)NC(=O)CNC(=O)[C@H]([C@@H](C)CC)NC(=O)[C@H]([C@@H](C)CC)NC1=O [Peptide S1b3inL1] ({CH2CO}-YRRPREQIIIGSLWVFCG-NH2; thioether N-17)
- fluctuation of EC50, Delta [1]: 2.1 fold
- pseudoviral neutralization activity (in words) [2]: submicromolar concentrations
- EC50 [3]: 5.2 µM
- change of infection inhibition, SARS1-S [4]: 1.3 fold
- fluctuation of EC50, Omicron BA.2 [5]: 2.1 fold
- fluctuation of EC50, Alpha [6]: 1.5 fold
- fluctuation of EC50, Beta [7]: 3.1 fold
- fluctuation of EC50, Omicron BA.1 [8]: 3.1 fold
- change of infection inhibition, WIV-16-S [9]: 4.1 fold

Compound: Cilgavimab [reference compound]
- decrease in activity [10]: 20 fold

Compound: Sotrovimab
- loss in potency against Omicron BA.1 [11]: threefold
- loss in potency against Omicron BA.2 [12]: 27 fold
